Measured values from ChEMBL document CHEMBL1145498, “A systematic interaction map of validated kinase inhibitors with Ser/Thr kinases” (Proc Natl Acad Sci U S A, 2007).

These compounds were tested against Calcium/calmodulin-dependent protein kinase type II subunit beta (Homo sapiens) (UniProt Q13554).
Sequence of Calcium/calmodulin-dependent protein kinase type II subunit beta (Homo sapiens) (Q13554 whole entry): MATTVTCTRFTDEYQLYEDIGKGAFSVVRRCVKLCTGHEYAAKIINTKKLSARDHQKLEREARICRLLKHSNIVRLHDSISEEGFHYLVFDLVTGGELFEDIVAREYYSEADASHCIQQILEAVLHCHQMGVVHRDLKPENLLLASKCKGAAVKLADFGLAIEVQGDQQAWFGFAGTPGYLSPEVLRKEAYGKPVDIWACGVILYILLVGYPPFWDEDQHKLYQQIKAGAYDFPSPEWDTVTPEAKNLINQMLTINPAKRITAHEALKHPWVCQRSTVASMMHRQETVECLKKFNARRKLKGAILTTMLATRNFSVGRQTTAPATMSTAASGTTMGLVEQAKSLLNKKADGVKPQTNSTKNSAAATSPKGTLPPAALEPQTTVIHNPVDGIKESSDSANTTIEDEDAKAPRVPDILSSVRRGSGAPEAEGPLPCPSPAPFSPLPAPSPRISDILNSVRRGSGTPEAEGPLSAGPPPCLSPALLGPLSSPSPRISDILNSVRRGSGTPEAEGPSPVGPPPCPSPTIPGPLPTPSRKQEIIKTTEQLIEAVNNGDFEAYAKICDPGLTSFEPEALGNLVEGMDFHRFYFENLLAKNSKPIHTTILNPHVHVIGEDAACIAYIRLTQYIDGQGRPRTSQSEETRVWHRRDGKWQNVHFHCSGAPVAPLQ

| Compound | ΔTm |
| --- | --- |
| COc1ccc(COc2ccc(Cc3cnc(N)nc3N)cc2OC)cc1 | -0.2 °C |
| CCN(CC)CCNC(=O)c1c(C)[nH]c(/C=C2\C(=O)Nc3ccc(F)cc32)c1C | 2.2 °C |

Next, values leading:

| ΔTm | Compound |
| --- | --- |
| 0.1 °C | Cc1ccc(NC(=O)c2ccc(CN3CCN(C)CC3)cc2)cc1Nc1nccc(-c2cccnc2)n1 |
| 1.6 °C | Nc1nc(Nc2ccc(S(N)(=O)=O)cc2)nn1C(=S)Nc1c(F)cccc1F |

What follows are compounds tested against Cyclin-dependent kinase-like 1 (Homo sapiens) (UniProt Q00532).
Sequence of Cyclin-dependent kinase-like 1 (Homo sapiens) (Q00532 whole entry): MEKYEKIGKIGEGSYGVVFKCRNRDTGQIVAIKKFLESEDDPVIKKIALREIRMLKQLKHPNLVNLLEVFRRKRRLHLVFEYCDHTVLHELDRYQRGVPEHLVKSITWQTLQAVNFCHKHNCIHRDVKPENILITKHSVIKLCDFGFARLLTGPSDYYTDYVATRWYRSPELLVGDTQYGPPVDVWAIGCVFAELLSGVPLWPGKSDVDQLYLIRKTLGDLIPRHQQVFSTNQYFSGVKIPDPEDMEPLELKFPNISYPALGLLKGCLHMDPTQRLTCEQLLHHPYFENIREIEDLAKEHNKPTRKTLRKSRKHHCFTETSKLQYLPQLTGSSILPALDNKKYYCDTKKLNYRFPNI

| Compound | ΔTm |
| --- | --- |
| O=C1c2ccccc2-c2n[nH]c3cccc1c23 | 0.7 °C |
| C[C@@H](N)[C@H]1CC[C@H](C(=O)Nc2ccncc2)CC1 | -0.1 °C |
| CN[C@@H]1CC2O[C@@](C)([C@@H]1OC)n1c3ccccc3c3c4c(c5c6ccccc6n2c5c31)C(=O)NC4 | 6.6 °C |
| COc1ccc(COc2ccc(Cc3cnc(N)nc3N)cc2OC)cc1 | -0.2 °C |
| CCN(CC)CCNC(=O)c1c(C)[nH]c(/C=C2\C(=O)Nc3ccc(F)cc32)c1C | 0.5 °C |

More lines, now with the values ahead:

| ΔTm | Compound |
| --- | --- |
| 0.3 °C | Cc1ccc(NC(=O)c2ccc(CN3CCN(C)CC3)cc2)cc1Nc1nccc(-c2cccnc2)n1 |
| 4.3 °C | Nc1nc(Nc2ccc(S(N)(=O)=O)cc2)nn1C(=S)Nc1c(F)cccc1F |

What follows are compounds tested against Casein kinase I isoform gamma-1 (Homo sapiens) (UniProt Q9HCP0).
Sequence of Casein kinase I isoform gamma-1 (Homo sapiens) (Q9HCP0 whole entry, looked up, canonical isoform): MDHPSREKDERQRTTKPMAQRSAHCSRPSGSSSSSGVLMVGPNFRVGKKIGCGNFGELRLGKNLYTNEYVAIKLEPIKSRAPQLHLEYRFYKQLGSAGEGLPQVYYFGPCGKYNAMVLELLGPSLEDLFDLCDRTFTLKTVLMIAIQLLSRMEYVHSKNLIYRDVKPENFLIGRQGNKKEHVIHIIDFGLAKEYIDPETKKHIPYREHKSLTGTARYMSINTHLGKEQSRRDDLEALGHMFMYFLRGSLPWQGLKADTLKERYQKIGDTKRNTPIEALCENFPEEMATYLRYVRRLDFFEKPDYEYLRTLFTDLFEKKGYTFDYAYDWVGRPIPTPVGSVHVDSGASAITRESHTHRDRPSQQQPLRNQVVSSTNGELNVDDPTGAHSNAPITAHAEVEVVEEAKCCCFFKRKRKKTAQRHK

| ΔTm | Compound |
| --- | --- |
| 1.7 °C | O=C1c2ccccc2-c2n[nH]c3cccc1c23 |
| 0.6 °C | C[C@@H](N)[C@H]1CC[C@H](C(=O)Nc2ccncc2)CC1 |
| 0.5 °C | Cc1ccc(NC(=O)c2ccc(CN3CCN(C)CC3)cc2)cc1Nc1nccc(-c2cccnc2)n1 |
| 0.7 °C | COc1ccc(COc2ccc(Cc3cnc(N)nc3N)cc2OC)cc1 |

| Compound | ΔTm |
| --- | --- |
| CN[C@@H]1CC2O[C@@](C)([C@@H]1OC)n1c3ccccc3c3c4c(c5c6ccccc6n2c5c31)C(=O)NC4 | 1.9 °C |

What follows are compounds tested against Glycogen synthase kinase-3 beta (Homo sapiens, UniProt P49841).
Sequence of Glycogen synthase kinase-3 beta (P49841 whole entry, looked up): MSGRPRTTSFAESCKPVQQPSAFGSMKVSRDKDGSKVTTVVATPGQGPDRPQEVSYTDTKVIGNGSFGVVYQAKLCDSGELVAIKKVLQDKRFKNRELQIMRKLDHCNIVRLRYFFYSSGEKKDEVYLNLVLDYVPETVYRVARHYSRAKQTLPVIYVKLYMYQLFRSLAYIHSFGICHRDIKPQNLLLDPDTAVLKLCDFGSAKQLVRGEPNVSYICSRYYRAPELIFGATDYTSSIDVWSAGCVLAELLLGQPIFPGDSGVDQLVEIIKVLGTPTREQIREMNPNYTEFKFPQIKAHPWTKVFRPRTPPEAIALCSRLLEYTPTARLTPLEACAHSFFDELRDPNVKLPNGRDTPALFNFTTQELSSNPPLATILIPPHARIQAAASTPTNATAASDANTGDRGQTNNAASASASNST

| ΔTm | Compound |
| --- | --- |
| 1.6 °C | O=C1c2ccccc2-c2n[nH]c3cccc1c23 |
| 0.6 °C | C[C@@H](N)[C@H]1CC[C@H](C(=O)Nc2ccncc2)CC1 |
| 0.4 °C | COc1ccc(COc2ccc(Cc3cnc(N)nc3N)cc2OC)cc1 |
| 12.1 °C | CCN(CC)CCNC(=O)c1c(C)[nH]c(/C=C2\C(=O)Nc3ccc(F)cc32)c1C |
| 8 °C | Nc1nc(Nc2ccc(S(N)(=O)=O)cc2)nn1C(=S)Nc1c(F)cccc1F |

These compounds were tested against Serine/threonine-protein kinase PAK 4 (Homo sapiens) (UniProt O96013).
Sequence of Serine/threonine-protein kinase PAK 4 (Homo sapiens) (O96013 whole entry, looked up): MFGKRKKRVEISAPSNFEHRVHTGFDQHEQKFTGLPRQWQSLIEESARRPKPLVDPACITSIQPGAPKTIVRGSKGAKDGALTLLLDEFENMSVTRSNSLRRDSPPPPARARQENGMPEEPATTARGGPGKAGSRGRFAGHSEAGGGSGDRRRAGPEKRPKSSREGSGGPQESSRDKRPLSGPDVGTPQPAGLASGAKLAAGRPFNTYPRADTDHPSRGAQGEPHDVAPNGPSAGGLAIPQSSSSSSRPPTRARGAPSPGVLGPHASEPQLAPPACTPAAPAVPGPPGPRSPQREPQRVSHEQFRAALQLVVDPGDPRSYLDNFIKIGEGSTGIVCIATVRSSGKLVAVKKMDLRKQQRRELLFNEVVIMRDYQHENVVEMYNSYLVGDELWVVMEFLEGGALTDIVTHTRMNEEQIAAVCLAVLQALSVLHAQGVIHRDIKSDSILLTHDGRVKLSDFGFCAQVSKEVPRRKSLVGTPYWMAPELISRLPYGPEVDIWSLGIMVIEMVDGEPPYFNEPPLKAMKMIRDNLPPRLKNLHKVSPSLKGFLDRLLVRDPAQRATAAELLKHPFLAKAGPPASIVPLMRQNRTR

| Compound | ΔTm |
| --- | --- |
| O=C1c2ccccc2-c2n[nH]c3cccc1c23 | 1.5 °C |
| C[C@@H](N)[C@H]1CC[C@H](C(=O)Nc2ccncc2)CC1 | 1.1 °C |
| COc1ccc(COc2ccc(Cc3cnc(N)nc3N)cc2OC)cc1 | -0.1 °C |
| CCN(CC)CCNC(=O)c1c(C)[nH]c(/C=C2\C(=O)Nc3ccc(F)cc32)c1C | 3.3 °C |

The remaining lines, values ahead:

| ΔTm | Compound |
| --- | --- |
| 0.4 °C | Cc1ccc(NC(=O)c2ccc(CN3CCN(C)CC3)cc2)cc1Nc1nccc(-c2cccnc2)n1 |
| 6.3 °C | Nc1nc(Nc2ccc(S(N)(=O)=O)cc2)nn1C(=S)Nc1c(F)cccc1F |

These compounds were tested against Serine/threonine-protein kinase PAK 6 (Homo sapiens) (UniProt Q9NQU5).
Sequence of Serine/threonine-protein kinase PAK 6 (Homo sapiens) (Q9NQU5 whole entry, looked up): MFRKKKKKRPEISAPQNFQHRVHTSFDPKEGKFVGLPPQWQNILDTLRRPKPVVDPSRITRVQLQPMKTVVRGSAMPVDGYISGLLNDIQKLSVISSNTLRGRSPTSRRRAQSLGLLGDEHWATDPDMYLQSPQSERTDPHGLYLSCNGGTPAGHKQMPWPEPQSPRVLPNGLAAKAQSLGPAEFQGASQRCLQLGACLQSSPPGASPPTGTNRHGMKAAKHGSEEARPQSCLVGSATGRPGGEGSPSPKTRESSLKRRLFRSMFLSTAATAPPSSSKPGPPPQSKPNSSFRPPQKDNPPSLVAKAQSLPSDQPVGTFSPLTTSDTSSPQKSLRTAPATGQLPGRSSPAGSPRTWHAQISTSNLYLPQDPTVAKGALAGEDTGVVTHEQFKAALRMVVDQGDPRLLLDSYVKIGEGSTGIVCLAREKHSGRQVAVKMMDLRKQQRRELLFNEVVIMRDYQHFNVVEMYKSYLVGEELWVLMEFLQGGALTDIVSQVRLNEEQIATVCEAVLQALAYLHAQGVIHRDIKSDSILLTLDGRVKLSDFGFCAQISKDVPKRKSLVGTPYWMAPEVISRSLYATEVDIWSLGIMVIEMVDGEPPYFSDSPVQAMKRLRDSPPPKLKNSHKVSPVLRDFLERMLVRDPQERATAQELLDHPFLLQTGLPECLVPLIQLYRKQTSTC

| Compound | ΔTm |
| --- | --- |
| O=C1c2ccccc2-c2n[nH]c3cccc1c23 | 1.8 °C |
| C[C@@H](N)[C@H]1CC[C@H](C(=O)Nc2ccncc2)CC1 | -0.2 °C |
| CN[C@@H]1CC2O[C@@](C)([C@@H]1OC)n1c3ccccc3c3c4c(c5c6ccccc6n2c5c31)C(=O)NC4 | 16.8 °C |
| COc1ccc(COc2ccc(Cc3cnc(N)nc3N)cc2OC)cc1 | 0.1 °C |
| CCN(CC)CCNC(=O)c1c(C)[nH]c(/C=C2\C(=O)Nc3ccc(F)cc32)c1C | 3.5 °C |

The next lines start with the values.

| ΔTm | Compound |
| --- | --- |
| 4.1 °C | Cc1ccc(NC(=O)c2ccc(CN3CCN(C)CC3)cc2)cc1Nc1nccc(-c2cccnc2)n1 |
| 5.6 °C | Nc1nc(Nc2ccc(S(N)(=O)=O)cc2)nn1C(=S)Nc1c(F)cccc1F |

These compounds were tested against T1, Serine/threonine-protein kinase PLK4 (Homo sapiens) (UniProt O00444).
T1 sequence (whole entry): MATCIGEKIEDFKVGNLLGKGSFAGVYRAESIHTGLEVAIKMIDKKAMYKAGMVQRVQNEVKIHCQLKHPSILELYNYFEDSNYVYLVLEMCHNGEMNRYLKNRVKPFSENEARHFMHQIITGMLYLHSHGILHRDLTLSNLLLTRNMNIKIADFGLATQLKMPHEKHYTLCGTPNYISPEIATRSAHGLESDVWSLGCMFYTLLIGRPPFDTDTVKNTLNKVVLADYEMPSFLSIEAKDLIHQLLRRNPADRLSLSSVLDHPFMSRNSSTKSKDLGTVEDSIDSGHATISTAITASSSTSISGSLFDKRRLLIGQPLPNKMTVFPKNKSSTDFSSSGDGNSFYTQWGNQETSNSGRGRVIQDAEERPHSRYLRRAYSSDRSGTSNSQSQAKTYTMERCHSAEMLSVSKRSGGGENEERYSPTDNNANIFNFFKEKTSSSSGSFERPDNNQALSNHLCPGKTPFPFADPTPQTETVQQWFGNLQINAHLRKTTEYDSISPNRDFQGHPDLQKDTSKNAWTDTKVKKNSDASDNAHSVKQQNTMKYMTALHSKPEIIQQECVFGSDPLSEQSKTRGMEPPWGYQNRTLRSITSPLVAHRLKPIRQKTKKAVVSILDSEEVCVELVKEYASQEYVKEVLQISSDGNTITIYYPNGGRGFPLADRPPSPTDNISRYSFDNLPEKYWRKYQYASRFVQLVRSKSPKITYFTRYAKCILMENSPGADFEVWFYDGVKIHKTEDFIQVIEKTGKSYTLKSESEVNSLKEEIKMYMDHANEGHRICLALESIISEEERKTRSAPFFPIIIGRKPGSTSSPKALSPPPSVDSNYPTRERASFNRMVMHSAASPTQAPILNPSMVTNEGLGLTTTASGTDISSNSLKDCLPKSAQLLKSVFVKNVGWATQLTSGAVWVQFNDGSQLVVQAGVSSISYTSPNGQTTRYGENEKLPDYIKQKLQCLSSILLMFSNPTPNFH

| Compound | ΔTm |
| --- | --- |
| O=C1c2ccccc2-c2n[nH]c3cccc1c23 | 6.3 °C |
| C[C@@H](N)[C@H]1CC[C@H](C(=O)Nc2ccncc2)CC1 | 0.3 °C |
| CN[C@@H]1CC2O[C@@](C)([C@@H]1OC)n1c3ccccc3c3c4c(c5c6ccccc6n2c5c31)C(=O)NC4 | 21.2 °C |
| COc1ccc(COc2ccc(Cc3cnc(N)nc3N)cc2OC)cc1 | -0.1 °C |
| CCN(CC)CCNC(=O)c1c(C)[nH]c(/C=C2\C(=O)Nc3ccc(F)cc32)c1C | 1.6 °C |

The remaining lines, values ahead:

| ΔTm | Compound |
| --- | --- |
| 0.2 °C | Cc1ccc(NC(=O)c2ccc(CN3CCN(C)CC3)cc2)cc1Nc1nccc(-c2cccnc2)n1 |
| 13.1 °C | Nc1nc(Nc2ccc(S(N)(=O)=O)cc2)nn1C(=S)Nc1c(F)cccc1F |

The compounds below were run against Serine/threonine-protein kinase 16 (Homo sapiens) (UniProt O75716).
Sequence of Serine/threonine-protein kinase 16 (Homo sapiens) (O75716 whole entry): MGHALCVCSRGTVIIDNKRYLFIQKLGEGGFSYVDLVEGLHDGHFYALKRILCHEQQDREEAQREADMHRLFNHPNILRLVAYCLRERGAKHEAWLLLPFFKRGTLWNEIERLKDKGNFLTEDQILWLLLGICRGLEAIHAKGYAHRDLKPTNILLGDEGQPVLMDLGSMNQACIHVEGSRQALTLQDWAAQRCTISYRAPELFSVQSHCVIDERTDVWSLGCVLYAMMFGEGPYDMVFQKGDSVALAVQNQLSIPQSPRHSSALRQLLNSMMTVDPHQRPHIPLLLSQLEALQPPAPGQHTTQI

| Compound | ΔTm |
| --- | --- |
| O=C1c2ccccc2-c2n[nH]c3cccc1c23 | 6.9 °C |
| C[C@@H](N)[C@H]1CC[C@H](C(=O)Nc2ccncc2)CC1 | 0.6 °C |
| CN[C@@H]1CC2O[C@@](C)([C@@H]1OC)n1c3ccccc3c3c4c(c5c6ccccc6n2c5c31)C(=O)NC4 | 9.6 °C |
| COc1ccc(COc2ccc(Cc3cnc(N)nc3N)cc2OC)cc1 | 0 °C |
| CCN(CC)CCNC(=O)c1c(C)[nH]c(/C=C2\C(=O)Nc3ccc(F)cc32)c1C | 3.3 °C |

Other lines, results leading:

| ΔTm | Compound |
| --- | --- |
| 2.9 °C | Cc1ccc(NC(=O)c2ccc(CN3CCN(C)CC3)cc2)cc1Nc1nccc(-c2cccnc2)n1 |
| 7.8 °C | Nc1nc(Nc2ccc(S(N)(=O)=O)cc2)nn1C(=S)Nc1c(F)cccc1F |

The compounds below were run against Serine/threonine-protein kinase 38 (Homo sapiens) (UniProt Q15208).
Sequence of Serine/threonine-protein kinase 38 (Homo sapiens) (Q15208 2-465 limits assumed): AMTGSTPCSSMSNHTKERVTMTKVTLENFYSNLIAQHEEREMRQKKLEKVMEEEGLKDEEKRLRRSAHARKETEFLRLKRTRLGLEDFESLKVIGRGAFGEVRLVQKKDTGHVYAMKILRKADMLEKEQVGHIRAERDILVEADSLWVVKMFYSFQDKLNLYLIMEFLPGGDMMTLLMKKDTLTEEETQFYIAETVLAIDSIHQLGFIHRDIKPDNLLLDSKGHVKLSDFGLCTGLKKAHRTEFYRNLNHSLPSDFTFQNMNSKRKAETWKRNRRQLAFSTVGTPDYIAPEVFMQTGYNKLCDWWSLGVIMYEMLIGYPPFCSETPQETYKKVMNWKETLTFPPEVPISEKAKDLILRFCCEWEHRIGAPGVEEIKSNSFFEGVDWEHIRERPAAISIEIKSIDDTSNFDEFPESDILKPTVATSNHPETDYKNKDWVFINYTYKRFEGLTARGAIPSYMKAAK

| Compound | ΔTm |
| --- | --- |
| O=C1c2ccccc2-c2n[nH]c3cccc1c23 | 1 °C |
| C[C@@H](N)[C@H]1CC[C@H](C(=O)Nc2ccncc2)CC1 | 0.4 °C |
| CN[C@@H]1CC2O[C@@](C)([C@@H]1OC)n1c3ccccc3c3c4c(c5c6ccccc6n2c5c31)C(=O)NC4 | 5.7 °C |
| COc1ccc(COc2ccc(Cc3cnc(N)nc3N)cc2OC)cc1 | 0.1 °C |
| CCN(CC)CCNC(=O)c1c(C)[nH]c(/C=C2\C(=O)Nc3ccc(F)cc32)c1C | 5.6 °C |

Next, values leading:

| ΔTm | Compound |
| --- | --- |
| 0.7 °C | Cc1ccc(NC(=O)c2ccc(CN3CCN(C)CC3)cc2)cc1Nc1nccc(-c2cccnc2)n1 |
| 6.4 °C | Nc1nc(Nc2ccc(S(N)(=O)=O)cc2)nn1C(=S)Nc1c(F)cccc1F |

Each compound was assayed against Serine/threonine-protein kinase VRK2 (Homo sapiens) (UniProt Q86Y07).
Sequence of Serine/threonine-protein kinase VRK2 (Homo sapiens) (Q86Y07 whole entry): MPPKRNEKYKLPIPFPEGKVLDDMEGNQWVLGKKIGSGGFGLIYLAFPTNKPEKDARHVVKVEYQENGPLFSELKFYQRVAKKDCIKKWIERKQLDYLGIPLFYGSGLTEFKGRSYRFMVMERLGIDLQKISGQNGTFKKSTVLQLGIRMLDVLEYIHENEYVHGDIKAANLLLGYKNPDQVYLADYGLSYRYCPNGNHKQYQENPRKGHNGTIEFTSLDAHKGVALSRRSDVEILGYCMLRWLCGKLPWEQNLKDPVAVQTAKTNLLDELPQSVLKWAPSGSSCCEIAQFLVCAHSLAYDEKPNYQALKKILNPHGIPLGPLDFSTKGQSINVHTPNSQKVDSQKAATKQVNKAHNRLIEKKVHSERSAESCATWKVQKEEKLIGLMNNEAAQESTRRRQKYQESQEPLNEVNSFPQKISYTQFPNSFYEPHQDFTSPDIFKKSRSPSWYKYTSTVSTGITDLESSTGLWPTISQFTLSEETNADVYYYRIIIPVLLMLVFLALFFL

| Compound | ΔTm |
| --- | --- |
| O=C1c2ccccc2-c2n[nH]c3cccc1c23 | 2.6 °C |
| C[C@@H](N)[C@H]1CC[C@H](C(=O)Nc2ccncc2)CC1 | 0.5 °C |
| CN[C@@H]1CC2O[C@@](C)([C@@H]1OC)n1c3ccccc3c3c4c(c5c6ccccc6n2c5c31)C(=O)NC4 | 2 °C |

Results, then the compound that gave them:

| ΔTm | Compound |
| --- | --- |
| 0.5 °C | Cc1ccc(NC(=O)c2ccc(CN3CCN(C)CC3)cc2)cc1Nc1nccc(-c2cccnc2)n1 |
| 2 °C | Nc1nc(Nc2ccc(S(N)(=O)=O)cc2)nn1C(=S)Nc1c(F)cccc1F |
